Target: T1, full length active recombinant SYK enzyme (Homo sapiens, UniProt P43405)
T1 construct: full length active recombinant SYK enzyme (Millipore, Calif.); purchased Millipore
Assay: Inhibition of Syk tyrosine phosphorylation activity (LANCE TR-FRET kinase assay)
Format: biochemical
Protocol: Inhibition of Syk Tyrosine Phosphorylation Activity
Potency of candidate molecules for inhibiting Syk tyrosine phosphorylation activity is assessed by measuring the ability of a test compound to inhibit Syk-mediated tyrosine phosphorylation of a Syk-specific substrate.
SYK tyrosine phosphorylation activity is measured using the LANCE™ Technology developed by Perkin Elmer Life and Analytical Sciences (Boston, Mass.). LANCE™ refers to homogeneous time resolved fluorometry applications using techniques such as time-resolved fluorescence resonance energy transfer assay (TR-FRET) (see generally for procedures in Perkin Elmer Application Note—How to Optimize a Tyrosine Kinase Assay Using Time Resolved Fluorescence-Based LANCE Detection, wwww.perkinelmer.com/lifesciences). The assay principle involves detection of a phosphorylated substrate using energy transfer from a phosphospecific europium-labeled antibody to streptavidin-allophycocyanin as an acceptor.
To test the ability of candidate molecules to inhibit SYK tyrosine phosphorylation activity, molecules are reconstituted in 30% DMSO and serially diluted 1:3 with the final dilution containing DMSO in the absence of the candidate molecule. The final DMSO concentration in the assay is 3%. Kinase assays are performed as a two part reaction. […] The second reaction involves termination of the kinase reaction and the simultaneous addition of the detection reagents—europium-labeled anti-phosphotyrosine reagent (Eu-W1024-PY100, Perkin Elmer, Boston, Mass.) and Streptavidin-Allophycocyanin detection reagent (SA-APC, Prozyme, Calif.). The kinase reaction is performed in a black U-bottom 96-well microtitre plate. The final reaction volume is 50 μL and contains a final concentration of 1 nM active SYK enzyme, 550 nM SYK-substrate, and 100 μM ATP diluted in a buffer containing 50 mM Tris pH 7.5, 5 mM MgCl2, and 1 mM DTT. The reaction is allowed to proceed for 1 hour at room temperature. The quench buffer contains 100 mM Tris pH 7.5, 300 mM NaCl2, 20 mM EDTA, 0.02% Brij35, and 0.5% BSA. The detection reagents are added to the reaction mixture at the following dilutions-1:500 for Eu-W1024-PY100 and 1:250 for SA-APC. The kinase reaction is terminated by the addition of 50 μL quench buffer containing the detection reagents. The detection is allowed to proceed for 1 hr at room temperature. Detection of the phosphorylated substrate in the absence and presence of inhibitors is measured in the TR-FRET instrument, Analyst HT (Molecular Probes, Sunnyvale, Calif.) and the condition for measurements are set up using CriterionHost Release 2.0 (Molecular Probes, Sunnyvale, Calif.). The settings used are a follows: excitation 360 nm, emission 665-7.5 nm, beam splitter 350 nm 50/50, flash 100 pulses, delay 60 us, integration 400 us, z-height 2 mm. […] IC50s were derived by non-linear regression analysis. […]

Compound | IC50
Cc1cccc(Nc2cc(N[C@@H]3CCCC[C@@H]3N)ncc2C(N)=O)c1 (relative stereo) [Example 142, 6-(cis-2-aminocyclohexylamino)-4-(3-toluidino)nicotinamide] | > 1000 nM
NC(=O)c1ccc(N[C@@H]2CCCC[C@@H]2N)cc1Nc1ccc(F)cc1 [Example 3, 4-((1R,2S)-2-aminocyclohexylamino)-2-(4-fluorophenylamino)benzamide] | > 1000 nM
NC(=O)c1cc(F)c(N[C@H]2[C@@H](N)CCCC2(F)F)nc1Nc1cccnc1 [Example 347, 6-((1S,6S)-6-amino-2,2-difluorocyclohexylamino)-5-fluoro-2-(pyridin-3-ylamino)nicotinamide] | 10 to 100 nM
NC(=O)c1cc(F)c(N[C@@H]2CCCC[C@@H]2N)nc1Nc1ccc2nccnc2c1 [Example 76, 6-((1R,2S)-2-aminocyclohexylamino)-5-fluoro-2-(quinoxalin-6-ylamino)nicotinamide] | 1 to 10 nM
Cc1cc(Nc2cc(N[C@H](COCc3ccccc3)C(N)=O)ccc2C(N)=O)sn1 [Example 15, (R)-4-(1-amino-3-(benzyloxy)-1-oxopropan-2-ylamino)-2-(3-methylisothiazol-5-ylamino)benzamide] | 100 to 1000 nM
NC(=O)c1cc(F)c(N[C@@H]2CCCC(F)(F)[C@@H]2N)nc1Nc1cnn2ccccc12 [Example 420, 6-((1R,2R)-2-amino-3,3-difluorocyclohexylamino)-5-fluoro-2-(pyrazolo[1,5-a]pyridin-3-ylamino)nicotinamide] | 10 to 100 nM
CC(C)C[C@@H](Nc1nc(Nc2ccc3ncccc3c2)c(C(N)=O)cc1F)C(N)=O [Example 248, (R)-6-(1-amino-4-methyl-1-oxopentan-2-ylamino)-5-fluoro-2-(quinolin-6-ylamino)nicotinamide] | 1 to 10 nM
Cc1cc(Nc2cc(N[C@H](CC(C)C)C(N)=O)c(F)cc2C(N)=O)sn1 [Example 20, (R)-4-(1-amino-4-methyl-1-oxopentan-2-ylamino)-5-fluoro-2-(3-methylisothiazol-5-ylamino)benzamide] | 10 to 100 nM
CC(C)[C@@H](Nc1nc(Nc2cccc(-n3nccn3)c2)c(C(N)=O)cc1C#N)C(N)=O [Example 126, (R)-2-(3-(2H-1,2,3-triazol-2-yl)phenylamino)-6-(1-amino-3-methyl-1-oxobutan-2-ylamino)-5-cyanonicotinamide] | > 1000 nM
NC(=O)c1cc(F)c(N[C@@H]2CCCC[C@@H]2N)nc1Nc1ccc(C(F)(F)F)nc1 [Example 176, 6-((1R,2S)-2-aminocyclohexylamino)-5-fluoro-2-(6-(trifluoromethyl)pyridin-3-ylamino)nicotinamide] | 10 to 100 nM
NC(=O)c1cc(F)c(N[C@@H]2CCCC[C@@H]2N)nc1Nc1ccc(OC2CCOCC2)cc1 [Example 81, 6-((1R,2S)-2-aminocyclohexylamino)-5-fluoro-2-(4-(tetrahydro-2H-pyran-4-yloxy)phenylamino)nicotinamide] | 10 to 100 nM
NC(=O)c1cc(F)c(N[C@H](CC2CC2)C(N)=O)nc1Nc1ccc2ncccc2c1 [Example 252, (R)-6-(1-amino-3-cyclopropyl-1-oxopropan-2-ylamino)-5-fluoro-2-(quinolin-6-ylamino)nicotinamide] | 1 to 10 nM
NC(=O)c1cc(F)c(N[C@@H]2CCCC(F)(F)[C@@H]2N)nc1Nc1cccc(Cl)c1 [Example 336, 6-((1R,2R)-2-amino-3,3-difluorocyclohexylamino)-2-(3-chlorophenylamino)-5-fluoronicotinamide] | 100 to 1000 nM
NC(=O)c1ccc(N[C@H](CC2CC2)C(N)=O)nc1Nc1ccc2cccnc2c1 [Example 214, (R)-6-(1-amino-3-cyclopropyl-1-oxopropan-2-ylamino)-2-(quinolin-7-ylamino)nicotinamide] | 10 to 100 nM
Cc1cc(Nc2cc(N[C@@H](C(N)=O)C3CCCCC3)ccc2C(N)=O)sn1 [Example 22, (R)-4-(2-amino-1-cyclohexyl-2-oxoethylamino)-2-(3-methylisothiazol-5-ylamino)benzamide] | 10 to 100 nM
NC(=O)c1cc(F)c(NC2(C(N)=O)CCCCC2)nc1Nc1cnc2ccccc2c1 [Example 378, 6-(1-carbamoylcyclohexylamino)-5-fluoro-2-(quinolin-3-ylamino)nicotinamide] | > 1000 nM
Cc1cncc(Nc2nc(N[C@@H]3CCCC[C@@H]3N)ccc2C(N)=O)c1 [Example 256] | 1 to 10 nM
NC(=O)c1cc(F)c(N[C@H]2[C@@H](N)CCCC2(F)F)nc1Nc1ccc2ncccc2c1 [Example 343, 6-((1S,6S)-6-amino-2,2-difluorocyclohexylamino)-5-fluoro-2-(quinolin-6-ylamino)nicotinamide] | 1 to 10 nM
NC(=O)c1cc(F)c(N[C@@H]2CCNC2)nc1Nc1ccc2ncccc2c1 [Example 351, (R)-5-fluoro-6-(pyrrolidin-3-ylamino)-2-(quinolin-6-ylamino)nicotinamide] | 10 to 100 nM
NC(=O)c1cnc(N[C@@H]2CCCC[C@@H]2N)cc1Nc1cnn2ccccc12 [Example 421, 6-((1R,2S)-2-aminocyclohexylamino)-4-(pyrazolo[1,5-a]pyridin-3-ylamino)nicotinamide] | > 1000 nM
CC[C@H](N)CNc1ccc(C(N)=O)c(Nc2cc(C)ns2)c1 [Example 30, (S)-4-(2-aminobutylamino)-2-(3-methylisothiazol-5-ylamino)benzamide] | 100 to 1000 nM
NC(=O)c1cc(F)c(N[C@@H]2CCCC[C@@H]2N)nc1Nc1ccncc1 [Example 175] | 10 to 100 nM
NC(=O)c1cc(F)c(N[C@@H]2CCCC[C@@H]2N)nc1Nc1cccc2ncccc12 [Example 73, 6-((1R,2S)-2-aminocyclohexylamino)-5-fluoro-2-(quinolin-5-ylamino)nicotinamide] | 1 to 10 nM
NC(=O)c1cc(F)c(N[C@@H]2CCCC[C@@H]2N)nc1Nc1cncs1 [Example 177, 6-((1R,2S)-2-aminocyclohexylamino)-5-fluoro-2-(thiazol-5-ylamino)nicotinamide] | > 1000 nM
Cc1cncc(Nc2nc(NC[C@H](C)N)c(F)cc2C(N)=O)c1 [Example 260, (S)-2-(5-methylpyridin-3-ylamino)-6-(2-aminopropylamino)-5-fluoronicotinamide] | 10 to 100 nM
NC(=O)c1cc(F)c(N[C@@H]2CCCC[C@@H]2N)nc1Nc1ccc2cnccc2c1 [Example 67, 6-((1R,2S)-2-aminocyclohexylamino)-5-fluoro-2-(isoquinolin-6-ylamino)nicotinamide] | < 1 nM
NC(=O)c1cc(F)c(N[C@@H]2CCCC(F)(F)[C@@H]2N)nc1Nc1ccc2ncccc2c1 [Example 291, 6-((1R,2R)-2-amino-3,3-difluorocyclohexylamino)-5-fluoro-2-(quinolin-6-ylamino)nicotinamide] | 10 to 100 nM
NC(=O)c1cc(F)c(N[C@@H]2CCCC[C@@H]2N)nc1Nc1cccc(-n2cncn2)c1 [Example 42, 2-(3-(1H-1,2,4-triazol-1-yl)phenylamino)-6-((1R,2S)-2-aminocyclohexylamino)-5-fluoronicotinamide] | 1 to 10 nM
NC(=O)c1cc(F)c(N[C@@H]2CCCC[C@@H]2N)nc1Nc1ccc(N2CCCC2)cc1 [Example 53, 6-((1R,2S)-2-aminocyclohexylamino)-5-fluoro-2-(4-(pyrrolidin-1-yl)phenylamino)nicotinamide] | 10 to 100 nM

Source: patent US8846928B2 (Portola Pharmaceuticals, Inc., priority 2010, dated 2014)
